Here are results for 4 compounds from PubChem BioAssay (NCI).

Structures are written as SMILES.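 How tested: cells in 96-well plates exposed to compound for 48 hours at five concentrations. Definition used: TGI = concentration required for complete inhibition of growth.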 Bounds are passed on as bounds.

The first assay has as its system MOLT-4 leukemia. In words: NCI-60 cell line screen, 48 h.
The compound `COc1c(F)c(F)c(/C(O)=C\c2nc3ccccc3[nH]c2=O)c(F)c1F` displayed a TGI of over 10 µM.

`CC1=NNC(=O)C1C1CC(c2c[nH]c3ccccc23)=NNC1=O` (stereo not given) came in with a TGI of over 100 µM.

`CCOC(=O)/C(C=Nc1c(C)n(C)n(-c2ccccc2)c1=O)=C(/C)O` registered a TGI of over 100 µM.

The subject of a further assay is NCI-H226 lung. Description: NCI-60 cell line screen, 48 h.
`N#CC1C(=O)NC23CCCCC2C1c1ccccc1O3` (stereo not given) showed a TGI of over 100 µM.

In turn, `CC1=NNC(=O)C1C1CC(c2c[nH]c3ccccc23)=NNC1=O` (stereo not given) returned a TGI of over 100 µM.

For the compound `CCOC(=O)/C(C=Nc1c(C)n(C)n(-c2ccccc2)c1=O)=C(/C)O`, the TGI is over 100 µM.

For the next assay, the system named is NCI-H23 lung. In words: NCI-60 cell line screen, 48 h.
Compound `N#CC1C(=O)NC23CCCCC2C1c1ccccc1O3` (stereo not given) gave a TGI of over 100 µM.

In the case of `COc1c(F)c(F)c(/C(O)=C\c2nc3ccccc3[nH]c2=O)c(F)c1F`, the TGI is over 10 µM.

In turn, `CC1=NNC(=O)C1C1CC(c2c[nH]c3ccccc23)=NNC1=O` (stereo not given) returned a TGI of over 100 µM.

Consider `CCOC(=O)/C(C=Nc1c(C)n(C)n(-c2ccccc2)c1=O)=C(/C)O`, for which the TGI was over 100 µM.

The subject of the next assay is NCI-H460 lung. Description: NCI-60 cell line screen, 48 h.
In turn, `N#CC1C(=O)NC23CCCCC2C1c1ccccc1O3` (stereo not given) registered a TGI of over 100 µM.

Compound `CC1=NNC(=O)C1C1CC(c2c[nH]c3ccccc23)=NNC1=O` (stereo not given) came in with a TGI of over 100 µM.

In the next assay the test system is NCI-H522 lung. Description: NCI-60 cell line screen, 48 h.
The compound `N#CC1C(=O)NC23CCCCC2C1c1ccccc1O3` (stereo not given) yielded a TGI of over 100 µM.

Consider `CC1=NNC(=O)C1C1CC(c2c[nH]c3ccccc23)=NNC1=O` (stereo not given), for which the TGI was over 100 µM.

The compound `CCOC(=O)/C(C=Nc1c(C)n(C)n(-c2ccccc2)c1=O)=C(/C)O` registered a TGI of over 100 µM.

In the next assay the test system is NCI/ADR-RES ovarian. Description: NCI-60 cell line screen, 48 h.
For `N#CC1C(=O)NC23CCCCC2C1c1ccccc1O3` (stereo not given), the TGI is over 100 µM.

`CC1=NNC(=O)C1C1CC(c2c[nH]c3ccccc23)=NNC1=O` (stereo not given) came in with a TGI of over 100 µM.

In the case of `CCOC(=O)/C(C=Nc1c(C)n(C)n(-c2ccccc2)c1=O)=C(/C)O`, the TGI is over 100 µM.

A further assay deals with OVCAR-3 ovarian. In words: NCI-60 cell line screen, 48 h.
As for `N#CC1C(=O)NC23CCCCC2C1c1ccccc1O3` (stereo not given), the TGI is over 100 µM.

Consider `CC1=NNC(=O)C1C1CC(c2c[nH]c3ccccc23)=NNC1=O` (stereo not given), for which the TGI was over 100 µM.

The compound `CCOC(=O)/C(C=Nc1c(C)n(C)n(-c2ccccc2)c1=O)=C(/C)O` gave a TGI of over 100 µM.

The next assay deals with OVCAR-4 ovarian. Description: NCI-60 cell line screen, 48 h.
`N#CC1C(=O)NC23CCCCC2C1c1ccccc1O3` (stereo not given) displayed a TGI of over 100 µM.

On to `COc1c(F)c(F)c(/C(O)=C\c2nc3ccccc3[nH]c2=O)c(F)c1F`, for which the TGI is 4.94 µM.

For the compound `CCOC(=O)/C(C=Nc1c(C)n(C)n(-c2ccccc2)c1=O)=C(/C)O`, the TGI was over 100 µM.

The test system of the next assay is OVCAR-5 ovarian. In words: NCI-60 cell line screen, 48 h.
Regarding `N#CC1C(=O)NC23CCCCC2C1c1ccccc1O3` (stereo not given), the TGI was over 100 µM.

In turn, `CC1=NNC(=O)C1C1CC(c2c[nH]c3ccccc23)=NNC1=O` (stereo not given) showed a TGI of over 100 µM.

`CCOC(=O)/C(C=Nc1c(C)n(C)n(-c2ccccc2)c1=O)=C(/C)O`: the TGI was over 100 µM.

Another assay concerns OVCAR-8 ovarian. Description: NCI-60 cell line screen, 48 h.
`N#CC1C(=O)NC23CCCCC2C1c1ccccc1O3` (stereo not given) returned a TGI of over 100 µM.

As to `COc1c(F)c(F)c(/C(O)=C\c2nc3ccccc3[nH]c2=O)c(F)c1F`, the TGI is over 10 µM.

Take `CC1=NNC(=O)C1C1CC(c2c[nH]c3ccccc23)=NNC1=O` (stereo not given): the TGI was over 100 µM.

In turn, `CCOC(=O)/C(C=Nc1c(C)n(C)n(-c2ccccc2)c1=O)=C(/C)O` came in with a TGI of over 100 µM.

The subject of a further assay is PC-3 prostate. In words: NCI-60 cell line screen, 48 h.
Compound `N#CC1C(=O)NC23CCCCC2C1c1ccccc1O3` (stereo not given) gave a TGI of over 100 µM.

The compound `COc1c(F)c(F)c(/C(O)=C\c2nc3ccccc3[nH]c2=O)c(F)c1F` had a TGI of over 10 µM.

Turning to `CC1=NNC(=O)C1C1CC(c2c[nH]c3ccccc23)=NNC1=O` (stereo not given), the TGI is over 100 µM.

Regarding `CCOC(=O)/C(C=Nc1c(C)n(C)n(-c2ccccc2)c1=O)=C(/C)O`, the TGI was over 100 µM.

The next assay relates to RPMI-8226 leukemia. In words: NCI-60 cell line screen, 48 h.
With `N#CC1C(=O)NC23CCCCC2C1c1ccccc1O3` (stereo not given), the TGI is over 100 µM.

Compound `COc1c(F)c(F)c(/C(O)=C\c2nc3ccccc3[nH]c2=O)c(F)c1F` registered a TGI of over 10 µM.

Take `CC1=NNC(=O)C1C1CC(c2c[nH]c3ccccc23)=NNC1=O` (stereo not given): the TGI is over 100 µM.

The compound `CCOC(=O)/C(C=Nc1c(C)n(C)n(-c2ccccc2)c1=O)=C(/C)O` displayed a TGI of over 100 µM.

For the next assay, the system named is RXF 393 renal. Description: NCI-60 cell line screen, 48 h.
`N#CC1C(=O)NC23CCCCC2C1c1ccccc1O3` (stereo not given) yielded a TGI of over 100 µM.

In turn, `COc1c(F)c(F)c(/C(O)=C\c2nc3ccccc3[nH]c2=O)c(F)c1F` returned a TGI of over 10 µM.

`CC1=NNC(=O)C1C1CC(c2c[nH]c3ccccc23)=NNC1=O` (stereo not given) had a TGI of over 100 µM.

Turning to `CCOC(=O)/C(C=Nc1c(C)n(C)n(-c2ccccc2)c1=O)=C(/C)O`, the TGI is over 100 µM.

The test system of the next assay is SF-268 CNS. In words: NCI-60 cell line screen, 48 h.
The compound `N#CC1C(=O)NC23CCCCC2C1c1ccccc1O3` (stereo not given) yielded a TGI of over 100 µM.

In turn, `COc1c(F)c(F)c(/C(O)=C\c2nc3ccccc3[nH]c2=O)c(F)c1F` gave a TGI of over 10 µM.

In the case of `CC1=NNC(=O)C1C1CC(c2c[nH]c3ccccc23)=NNC1=O` (stereo not given), the TGI is over 100 µM.

In another assay the test system is SF-295 CNS. In words: NCI-60 cell line screen, 48 h.
`N#CC1C(=O)NC23CCCCC2C1c1ccccc1O3` (stereo not given) showed a TGI of over 100 µM.

In turn, `COc1c(F)c(F)c(/C(O)=C\c2nc3ccccc3[nH]c2=O)c(F)c1F` yielded a TGI of over 10 µM.

`CC1=NNC(=O)C1C1CC(c2c[nH]c3ccccc23)=NNC1=O` (stereo not given): the TGI was over 100 µM.

Take `CCOC(=O)/C(C=Nc1c(C)n(C)n(-c2ccccc2)c1=O)=C(/C)O`: the TGI is over 100 µM.
